Assay results from publication PMC9650711, “Hydroxyl-Rich Hydrophilic Endocytosis-Promoting Peptide with No Positive Charge” (Journal of the American Chemical Society, 2022).

What was measured:
Assay type in all cases: cell-based, human
[1] = system: RB-EPP6 uptake in U87 cells; assay: Endocytosis inhibitors treatment, RB-EPP6 uptake by flow cytometry; conditions: inhibitor 1 h, then 500 nM RB-EPP6 1 h; for inhibition of RB-EPP6 uptake: flow cytometry median intensity; for effect on RB-EPP6 uptake (cholesterol extraction / binding): flow cytometry
Protocol: (§1) Flow cytometry experiments
(§2) To perform flow cytometry experiments, a NovoCyte flow cytometer (NovoExpress) was used.
(§3) Quantification of fluorescence intensity was achieved using the Novoxpress software. Fifty thousand cells were analyzed for each condition. A green fluorescent dye used for DNA staining, YOYO, was included in all the flow cytometry experiments, serving as a cell live/dead indicator.
(§4) For the YOYO-only group, the cells were treated with trypsin for 5-10 min and subsequently fixed in a 1.5 mL centrifuge tube using 4% paraformaldehyde at room temperature for 15 min. Then, fixed cells were washed with PBS once and were permeabilized using 90% MeOH on ice for 15 min. For all conditions, cells were incubated with YOYO in a phenol-free medium for half an hour, and then were centrifuged to remove the YOYO solution and resuspended in a fresh phenol-free medium before performing flow cytometry.
For general incubation, 300 k U87 cells were seeded in a 35×10 mm culture dish and incubated overnight under normal culturing conditions. Stock solutions of Dye-EPPs were made in DMSO to reach a concentration of 500 μM. Fresh cell culture medium was used to dilute the stock solution to 500 nM. Cells were incubated with RB-EPPs for desired time periods, followed by a one-time wash with phenol-free fresh culture medium before measurements. […]
(§5) Endocytosis inhibitors treatment
U87 cells were incubated with different endocytosis inhibitors for 1 h. Then, the media was replaced with fresh media containing 500 nM of RB-EPP6. After 1 h, a trypsin-EDTA solution (0.05%, Sigma) was added to detach the cells. The cells were collected by centrifugation and resuspended in phenol-free media. […]
Stock solutions of trackers for mitochondria, lysosome, and ER were diluted with cell culture medium into 100 nM, 500 nM, and 4 μM, respectively. RB-EPP6 was added to each working solution at 500 nM. U87 cells were incubated with the trackers and RB-EPP6 for 1 h and then washed once before confocal imaging.

[2] = system: U87 cells; assay: Uptake and nuclear accumulation of TO- and EB-labeled EPPs, confocal; conditions: confocal imaging, TO conjugates 500 nM, EB-EPP6 2 ug/mL or 6 hr
Protocol: Confocal imaging experiments
To image the cells, a Zeiss 880 inverted confocal laser scanning microscope (Carl Zeiss, Germany) was used. Image acquisition and analyses were carried out using the manufacturer’s software (ZEN, Carl Zeiss). Quantification of fluorescence intensity in single cells was performed using Fiji […]
as §1, §2, §3
[…]
2 μL of RB-EPP (in DMSO) was added to the solution at a concentration of 500 μM. […] Samples were collected from both phases and quantified by Analytical HPLC separately. […]

[3] = system: U87 cells; assay: Resazurin assay, cell viability
Protocol: Time-dependent uptake experiment
U87 cells were incubated with RB-EPP6 at 500 nM for 1 h. After washing with fresh medium once, the cells were kept in the 5% CO2 incubator at 37 °C for desired time durations before […]
Temperature-dependent uptake experiment
U87 cells were kept in a 4 °C cold room for half an hour. After that, cells were incubated with RB-EPP 6 at 500 nM at 4 °C. Cells in the control group were maintained and incubated at 37 °C. After 1 h, cells were washed with fresh medium once before confocal imaging.
All the RB-EPPs were diluted in PBS to 100 μM. 700 μL of the testing peptides were added to the apical chamber of a Corning BioCoat Pre-coated PAMPA Plate. 200 μL PBS was added to the basolateral chamber. The plate was kept at 37 °C with 5% CO2 for 5 h, after which 80 μL samples were collected from each chamber for RB fluorescence intensity reading using the Synergy H1 […]
as §5
U87 cells were incubated with different endocytosis inhibitors for 1 h. Then, the media was replaced with fresh media containing 500 nM of RB-EPP6. After 1 h, a trypsin-EDTA solution (0.05%, Sigma) was added to detach the cells. […]
Resazurin was dissolved in DI water at a stock concentration of 6 mg/mL. […] The fluorescence intensity of the samples was recorded by a plate reader at 532 nm excitation and 585 nm emission wavelengths. […]

[4] = system: RB-EPP6 uptake in U87 cells; assay: FIBCD1 competition assay with CSA, RB-EPP6 uptake by flow cytometry; conditions: 500 nM RB-EPP6 together with CSA, 1 h
Protocol: experiment. Poly-A selective RNA-seq libraries were prepared using the NEB NextUltra II kit (New England Biolabs) and sequenced on an Illumina NextSeq500 with 2×75 pair-end reads. The obtained sequencing data was preprocessed using fastp, aligned using STAR, and counted using featureCounts. Differentially expressed genes were identified using DESeq2. The sequence data and analysis reports are deposited in the GEO repository (Accession # GSE202764) […]
U87 cells were incubated with 500 nM RB-EPP6 and YOYO, together with chondroitin sulfate (CSA) in complete media. After 1 h, trypsin was used to detach the cells. Cell pellets were collected by centrifugation. Fresh phenol-free medium was added to each condition. […]
Human FIBCD1 cDNA with an MYC-DDK tag was ordered from Origene (#RC206180) and was expressed using the mammalian expression system kit ExpiCHOTM (#A29133) as generally described by MAN0014337. […] The obtained full-length FIBCD1 was quantified using BCA.
Fluorescence polarization (FP) assay
Solutions of RB-EPPs (in 1% BSA/PBST) were added to different concentrations of full-length FIBCD1 (in 1% BSA/PBST). […] The solutions were incubated at room temperature for 30 minutes on an orbital shaker, and the fluorescence polarization values were quantified using a BioTek Synergy H1 plate reader, with an FP filter set (excitation 530/25, emission 590/35). […]

[5] = system: RB-EPP6 uptake in U87 cells; assay: Heparin-binding assay, RB-EPP6 uptake by flow cytometry; conditions: heparin sulfate 10-200 μg/mL 30 min, then with 500 nM RB-EPP6 1 h

Compound: O=C(N/N=C/c1ccc(O)c(O)c1)c1cc2ccccc2cc1O [Dynasore]
- inhibition of RB-EPP6 uptake [1]: 86%

Compound: CC[n+]1c(-c2ccccc2)c2cc(N)ccc2c2ccc(N)cc21 [EB, ethidium bromide]
- uptake / intracellular localisation [2]: did not show any uptake

Compound: O=C1NC(=NS(=O)(=O)c2cccc3ccccc23)S/C1=C\c1ccc(Br)cc1 [Pitstop 2]
- inhibition of RB-EPP6 uptake [1]: 9%

Compound: C=C1[C@@H](C)[C@H]2[C@H](Cc3ccccc3)NC(=O)[C@]23[C@H](OC(C)=O)/C=C/[C@@](C)(O)C(=O)[C@@H](C)C/C=C/[C@H]3[C@@H]1O [cytochalasin D]
- inhibition of RB-EPP6 uptake [1]: 38%

Compound: CCCCC[C@@H](O)[C@H]1C(=O)O[C@H](C)[C@@H](O)/C=C/C=C/C=C/C=C/C=C(\C)[C@@H](O)C[C@H](O)C[C@H](O)C[C@H](O)C[C@H](O)C[C@H](O)C[C@@H]1O [filipin]
- effect on RB-EPP6 uptake (cholesterol extraction / binding) [1]: did not inhibit

Compound: c1ccc2c(c1)Nc1ccccc1S2 [phenothiazine]
- inhibition of RB-EPP6 uptake [1]: no inhibition

Compound: COC[C@H]1OC(=O)c2coc3c2[C@@]1(C)C1=C(C3=O)[C@@H]2CCC(=O)[C@@]2(C)C[C@H]1OC(C)=O [wortmannin]
- inhibition of RB-EPP6 uptake [1]: 48%

Compound: chondroitin sulfate A [CSA]
- effect on cell viability [3]: without affecting cell viability
- effect on RB-EPP6 uptake (competitive uptake) [4]: inhibit RB-EPP6 uptake in a concentration-dependent manner

Compound: heparin sulfate
- effect on RB-EPP6 uptake [5]: did not affect

Compound: methyl-β-cyclodextrin
- effect on RB-EPP6 uptake (cholesterol extraction / binding) [1]: did not inhibit
